From ChEMBL document CHEMBL5331143, “Stereochemistry-Driven Interactions of α,γ-Peptide Ligands with the Neuropeptide Y Y4-Receptor” (J Med Chem, 2023)
Starred links: 1 amine or outer side, 2 acyl side, 3 side chain; linkers in the order of their positions; H or OH if unused. Non-standard residues stand in square brackets, D forms with d. Residues, ends and D or L forms follow the SMILES beside them. X1 = O=C([C@@H]1C[C@@H](c2ccccc2)[C@@H]1CN[*:1])[*:2]; X2 = O=C([C@H]1C[C@H](c2ccccc2)[C@H]1CN[*:1])[*:2]

What was measured:
[1] = target: T1, Neuropeptide Y receptor type 5 (Homo sapiens, UniProt Q15761); assay: Displacement of [3H]propionyl-pNPY from human Y5 receptor expressed in HEC-1B cells measured after 90 mins by MicroBeta plate counter based competition binding assay; type: cell-based, HEC-1B cell line
T1 sequence (Q15761 whole entry): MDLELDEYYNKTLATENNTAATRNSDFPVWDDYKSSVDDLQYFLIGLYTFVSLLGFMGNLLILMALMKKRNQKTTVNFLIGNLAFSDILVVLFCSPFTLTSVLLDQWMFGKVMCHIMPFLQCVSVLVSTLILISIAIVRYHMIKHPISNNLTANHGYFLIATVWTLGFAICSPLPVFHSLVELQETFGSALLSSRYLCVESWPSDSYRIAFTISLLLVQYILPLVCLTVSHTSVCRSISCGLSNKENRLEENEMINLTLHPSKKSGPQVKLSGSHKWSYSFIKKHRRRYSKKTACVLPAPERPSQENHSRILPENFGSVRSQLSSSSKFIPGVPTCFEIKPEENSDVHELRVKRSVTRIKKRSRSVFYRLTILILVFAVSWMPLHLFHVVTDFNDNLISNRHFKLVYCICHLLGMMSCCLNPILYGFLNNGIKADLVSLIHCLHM

[2] = Stability in human plasma assessed as rate constant by measuring loss of intact peptide at 100 uM measured upto 24 hrs at 37 degC; type: ADME, cell-free
[3] = target: T2, Neuropeptide Y receptor type 2 (Homo sapiens, UniProt P49146); assay: Displacement of [3H]propionyl-pNPY from human Y2 receptor expressed in CHO cells measured after 90 mins by MicroBeta plate counter based competition binding assay; type: cell-based
T2 sequence (P49146 whole entry): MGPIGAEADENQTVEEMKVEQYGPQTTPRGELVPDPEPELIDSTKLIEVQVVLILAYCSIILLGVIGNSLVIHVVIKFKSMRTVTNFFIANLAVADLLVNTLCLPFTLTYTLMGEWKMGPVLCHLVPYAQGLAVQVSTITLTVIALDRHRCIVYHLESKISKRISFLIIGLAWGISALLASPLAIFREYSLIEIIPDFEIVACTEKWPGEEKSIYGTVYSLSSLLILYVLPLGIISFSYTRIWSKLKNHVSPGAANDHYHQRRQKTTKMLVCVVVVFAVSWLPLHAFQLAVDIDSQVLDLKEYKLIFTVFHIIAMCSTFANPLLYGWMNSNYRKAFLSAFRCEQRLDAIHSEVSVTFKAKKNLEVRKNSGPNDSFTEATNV

[4] = target: T3, Neuropeptide Y receptor type 4 (Homo sapiens, UniProt P50391); assay: Agonist potency at human Y4 receptor expressed in HEK293T-NlucN-mGSi/Y4R-NlucC cells by miniGsi protein recruitment assay; type: cell-based
T3 sequence (P50391 whole entry): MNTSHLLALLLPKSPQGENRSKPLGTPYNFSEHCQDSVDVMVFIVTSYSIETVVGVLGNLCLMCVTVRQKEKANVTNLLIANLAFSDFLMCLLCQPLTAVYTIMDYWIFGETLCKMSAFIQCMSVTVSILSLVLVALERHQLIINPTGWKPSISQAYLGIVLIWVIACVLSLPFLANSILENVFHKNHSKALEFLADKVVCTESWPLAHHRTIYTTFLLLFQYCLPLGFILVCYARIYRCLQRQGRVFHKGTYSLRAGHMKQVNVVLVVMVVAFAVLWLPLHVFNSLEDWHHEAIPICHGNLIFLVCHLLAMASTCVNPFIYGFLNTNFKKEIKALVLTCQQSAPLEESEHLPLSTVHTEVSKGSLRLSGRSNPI

[5] = Stability in human plasma assessed as time constant by measuring loss of intact peptide at 100 uM measured upto 24 hrs at 37 degC; type: ADME, cell-free
[6] = target: T3, Neuropeptide Y receptor type 4; assay: Agonist potency at human Y4 receptor expressed in HEK293T-NlucN-mGSi/Y4R-NlucC cells assessed as intrinsic activity by miniGsi protein recruitment assay relative to hPP; type: cell-based; conditions: filed as agonist
[7] = Stability in human plasma assessed as half life time by measuring loss of intact peptide at 100 uM measured upto 24 hrs at 37 degC; type: ADME, cell-free
[8] = Stability in human plasma assessed as intact remained level in presence of ramipril ACE inhibitor measured over 4 hrs at 37 degC; type: ADME, cell-free
[9] = target: T3, Neuropeptide Y receptor type 4; assay: Displacement of [3H]UR-KK200 from human Y4 receptor expressed in CHO-Gqi5-mtAQE cells measured after 90 mins by MicroBeta plate counter based competition binding assay; type: cell-based

| Structure (SMILES) | Ki ([1]; read-out: Ki) [nM] | Ki ([1]; read-out: pKi (converted)) [nM] | half-life at 100 µM [2] [h] | Ki ([3]; read-out: Ki) [nM] | Ki ([3]; read-out: pKi (converted)) [nM] | EC50 ([4]; read-out: EC50) [nM] | K [5] [h⁻¹] | Intrinsic activity [6] | half-life at 100 µM [7] [h] | EC50 ([4]; hek293t, read-out: EC50) [nM] | Ki ([3]; cho, read-out: Ki) [nM] | EC50 ([4]; read-out: pEC50 (converted)) [nM] | Stability [8] | Ki ([9]; read-out: Ki) [nM] | Ki ([9]; read-out: pKi (converted)) [nM] | Ki ([1]; hec-1b cell line, read-out: Ki) [nM] |
| --- | --- | --- | --- | --- | --- | --- | --- | --- | --- | --- | --- | --- | --- | --- | --- | --- |
| CC(=O)N[C@@H](CCCNC(=N)N)C(=O)N[C@@H](Cc1ccc(O)cc1)C(=O)N[C@@H](CCCNC(=N)N)C(=O)N[C@@H](CC(C)C)C(=O)N[C@@H](CCCNC(=N)N)C(=O)N[C@@H](Cc1ccc(O)cc1)C(N)=O | > 5000 | > 5010 | 1.4 | > 5000 | > 5010 | 110 | 0.5 | 0.58 | 2 | – | – | – | – | – | – | – |
| CC(C)C[C@H](NC(=O)[C@@H]1CCCNC(=N)NC(=O)NCCCCNC(=O)CCC(=O)N[C@@H](CCCNC(=N)N)C(=O)N[C@@H](Cc2ccc(O)cc2)C(=O)N1)C(=O)N[C@@H](CCCNC(=N)N)C(=O)N[C@@H](Cc1ccc(O)cc1)C(N)=O | – | – | – | – | – | – | – | 68% | – | 1.7 | – | – | – | – | – | – |
| CC(C)C[C@H](NC(=O)[C@@H](N)CCCNC(=N)N)C(=O)N[C@@H](CCCNC(=N)N)C(=O)N[C@@H](Cc1ccc(O)cc1)C(N)=O | – | – | – | – | – | – | – | 54% | – | – | – | – | – | – | – | – |
| CC(C)C[C@H](NC(=O)[C@@H]1CCCNC(=N)NC(=O)NCCCCNC(=O)CCC(=O)N[C@@H](CCCNC(=N)N)C(=O)N[C@@H](Cc2c[nH]c3ccccc23)C(=O)N1)C(=O)N[C@@H](CCCNC(=N)N)C(=O)N[C@@H](Cc1ccc(O)cc1)C(N)=O | – | – | – | – | – | – | – | 80% | – | – | – | – | – | – | – | – |
| CC(=O)N[C@@H](CCCNC(=N)N)C(=O)NC[C@@H]1[C@H](C(=O)N[C@@H](CCCNC(=N)N)C(=O)N[C@@H](CC(C)C)C(=O)N[C@@H](CCCNC(=N)N)C(=O)N[C@@H](Cc2ccc(O)cc2)C(N)=O)C[C@H]1c1ccccc1 (Ac-R[X1]RLRY-NH2) | > 3000 | > 3160 | 0.4 | – | > 1000 | 20 | 1.83 | 0.5 | 0.55 | – | > 1000 | 18.6 | Stable | 0.66 | 0.646 | – |

The remaining lines, values ahead:

| Ki ([1]; read-out: Ki) [nM] | Ki ([1]; read-out: pKi (converted)) [nM] | half-life at 100 µM [2] [h] | Ki ([3]; read-out: Ki) [nM] | Ki ([3]; read-out: pKi (converted)) [nM] | EC50 ([4]; read-out: EC50) [nM] | K [5] [h⁻¹] | Intrinsic activity [6] | half-life at 100 µM [7] [h] | EC50 ([4]; hek293t, read-out: EC50) [nM] | Ki ([3]; cho, read-out: Ki) [nM] | EC50 ([4]; read-out: pEC50 (converted)) [nM] | Stability [8] | Ki ([9]; read-out: Ki) [nM] | Ki ([9]; read-out: pKi (converted)) [nM] | Ki ([1]; hec-1b cell line, read-out: Ki) [nM] | Structure (SMILES) |
| --- | --- | --- | --- | --- | --- | --- | --- | --- | --- | --- | --- | --- | --- | --- | --- | --- |
| – | > 1000 | – | > 3000 | > 3160 | – | – | – | – | – | – | – | – | 340 | 331 | > 1000 | CC(=O)N[C@@H](CCCNC(=N)N)C(=O)NC[C@@H]1[C@H](C(=O)N[C@@H](CCCNC(=N)N)C(=O)NC[C@@H]2[C@H](C(=O)N[C@@H](CCCNC(=N)N)C(=O)N[C@@H](Cc3ccc(O)cc3)C(N)=O)C[C@H]2c2ccccc2)C[C@H]1c1ccccc1 (Ac-R[X1]R[X1]RY-NH2) |
| > 3000 | > 3160 | 2.2 | > 3000 | > 3160 | 610 | 0.31 | 0.39 | 3.2 | – | – | 468 | Stable | 12 | – | – | CC(=O)N[C@@H](CCCNC(=N)N)C(=O)NC[C@H]1[C@@H](C(=O)N[C@@H](CCCNC(=N)N)C(=O)N[C@@H](CC(C)C)C(=O)N[C@@H](CCCNC(=N)N)C(=O)N[C@@H](Cc2ccc(O)cc2)C(N)=O)C[C@@H]1c1ccccc1 (Ac-R[X2]RLRY-NH2) |
| – | > 1000 | – | > 3000 | > 3160 | – | – | – | – | – | – | – | – | 910 | 891 | > 1000 | CC(=O)N[C@@H](CCCNC(=N)N)C(=O)NC[C@H]1[C@@H](C(=O)N[C@@H](CCCNC(=N)N)C(=O)NC[C@H]2[C@@H](C(=O)N[C@@H](CCCNC(=N)N)C(=O)N[C@@H](Cc3ccc(O)cc3)C(N)=O)C[C@@H]2c2ccccc2)C[C@@H]1c1ccccc1 (Ac-R[X2]R[X2]RY-NH2) |
